In brackets after ≈: the same amount, converted by molar mass. One block for each compound: values may come before it.
Experiments:
[1] = Solid stability study (XRPD and HPLC purity after storage); format: physicochemical
Description: X-ray powder diffraction patterns were collected using a zero-background sample plate on a Bruker D8 Advance X-ray diffractometer equipped with an autosampler. The radiation source used was Cu Kα (λ=1.5418 Å), with the X-ray tube voltage set at 40 kV and the X-ray tube current set at 40 mA. The divergence slit for the X-rays was 0.6 mm. A suitable amount of the sample was placed in the center of the zero-background sample plate under the ambient condition and lightly pressed with a clean glass slide to obtain a smooth, flat surface. The zero-background sample holder was then fixed. Diffraction analysis of the sample was performed with a scan step size of 0.02° (2θ) over a range of 3-40° (2θ). The software used for data collection was DIFFRAC.COMMANDER, and the data were analyzed and presented using DIFFRAC.EVA. The instrument used for liquid chromatography analysis is the Agilent HPLC 1260 series. [table] The ATV014 crystalline form I obtained from Example 2, batch number 41579-025-C1, was used for solid stability studies. The samples were placed under the conditions shown in Table 5, and then their XRPD and purity were tested.

physchem = format: physicochemical
Procedure: Based on the salt screening study results, the solubility of ATV014 crystalline form I obtained in Example 2, batch number 41579-025-C5, was determined at 37° C. in FaSSIF, FeSSIF, SGF, and water at 0.5 h, 2 h, and 24 h. The solubility of the sample is pH-dependent, meaning that the lower the pH, the higher the solubility.

[2] = Dynamic vapor sorption analysis (DVS), hygroscopicity; format: physicochemical; settings: for DVS Hygroscopic weight gain %: 25° C., batch 41579-025-C5
Procedure: Vapor sorption/desorption data of the sample was obtained using DVS Intrinsic. A sample of 10-50 mg was weighed and placed in the sample chamber for automatic weighing. Parameters were set according to Table 1 to analyze the hygroscopicity of the sample.
The ATV014 crystalline form I obtained in Example 2 with batch number 41579-025-C5 was subjected to PLM (Polarized Light Microscopy Analysis), XRPD (X-ray Powder Diffraction), DSC (Differential Scanning calorimetry), TGA (Thermogravimetric Analysis), and DVS (Dynamic Vapor Sorption Instrument) testing.

[3] = Activity of ATV014 compared to GS-441524 (inventor's research)
Description: (§1) The compound represented by the formula ATV014 is a derivative of the compound GS-441524.

[4] = Description: as §1
SARS-CoV-2 = settings: in vivo activity tests in mice; cited from earlier work
[5] = 40° C./75% RH, open container, 7 days
[6] = 60° C., closed container, 7 days
[7] = Room temperature/92.5% RH, open container, 7 days

Purity % ([1]; 0 day (start of stability study), batch 41579-025-C1): 98.12% | Purity % [1, 5]: 98.09% | XRPD result [1, 5]: No change | Purity % [1, 6]: 98.10% | XRPD result [1, 6]: No change | physical and chemical properties after storage ([1]; 7 days under 40° C./75% RH, 60° C., and 92.5% RH): remained stable | Purity % [1, 7]: 98.19% | XRPD result [1, 7]: No change | crystalline form of remaining solids during solubility determination (XRPD) (physchem): the crystalline form did not change | Solubility (physchem; 37 °C, pH 1.24, simulated gastric fluid, thermodynamic from solid): ~2900 µg/mL (≈ 7.22 mM) | Solubility (physchem; 37 °C, pH 5.53, water, thermodynamic from solid): ~5 µg/mL (≈ 0.0125 mM) | Solubility (physchem; 0.5 h, pH 1.24): 2480 µg/mL (≈ 6.18 mM) | Solubility (physchem; 2 h, pH 1.24): 2560 µg/mL (≈ 6.38 mM) | Solubility (physchem; 24 h, pH 1.24): 2860 µg/mL (≈ 7.12 mM) | XPRD (remaining solid) (physchem; 24 h, pH 5.53): Unchanged | XPRD (remaining solid) (physchem; simulated gi fluid, 24 h, pH 1.24): Unchanged | XPRD (remaining solid) (physchem; simulated gi fluid, 24 h, pH 4.95): Unchanged | XPRD (remaining solid) (physchem; simulated gi fluid, 24 h, pH 6.45): Unchanged | hygroscopicity (DVS results) [2]: low hygroscopicity | DVS Hygroscopic weight gain % ([2]; 80% RH): 80% RH: 0.31%. | DVS Hygroscopic weight gain % ([2]; 90% RH): 90% RH: 0.40%. | Crystalline form after DVS testing ([2]; after full sorption/desorption cycle): unchanged after
Compound: N#C[C@@]1(c2ccc3c(N)ncnn23)O[C@H](COC(=O)C2CCCCC2)[C@@H](O)[C@H]1O [ATV014 crystalline form I]

bioavailability compared to the compound GS-441524 [4]: better
Compound: N#C[C@@]1(c2ccc3c(N)ncnn23)O[C@H](COC(=O)C2CCCCC2)[C@@H](O)[C@H]1O [ATV014]
activity compared to the compound GS-441524 [3]: better

Compound: N#C[C@@]1(c2ccc3c(N)ncnn23)O[C@H](CO)[C@@H](O)[C@H]1O [GS-441524]
antiviral activity compared to Remdesivir (SARS-CoV-2): superior antiviral activity compared to Remdesivir
